Laboratory results taken from patent US7160684B2, “Methods of selecting compounds for modulation of bladder function” (Wyeth, priority 2000, dated 2007).

Test system: isolated rat bladder smooth muscle cell
Experiment: Voltage clamp recording of outward current, rat cells
Format: cell-based
Conditions: test potentials between −50 and 80 mV; n=5
Text: Rat detrusor cells are isolated in a manner previously described for guinea-pig detrusor (Sheldon J H, Norton N W and Argentieri T M (1997) Inhibition of guinea pig detrusor contraction by NS-1619 is associated with activation of BKCa and inhibition of calcium currents. J Pharmacol Exp Thera 283(3): 1193–1200). Male Sprague-Dawley rats (Charles River, Wilmington, Mass.; 200–400 grams) are euthanized by CO2 inhalation and exsanguination. Their urinary bladders are rapidly removed and placed in 37° C. physiological solution with the following composition (mM): Na glutamate (80.0), NaCl (54.7), KCl (5.0), NaHCO3 (25.0), MgCl2.2H2O (2.5), D-glucose (11.8) and CaCl2 (0.2) gassed with O2—CO2, 95%/5% for a final pH of 7.4. The dome of the bladder is isolated from the trigone region and the mucosa is removed. This tissue is then cut into 2–3 mm wide strips and placed into fresh buffer for 1 hour. Tissues are then transferred into 10 ml of an isolation buffer containing the above composition plus collagenase type VIII (1.0 mg/ml) and pronase (0.25 mg/ml). After 10 minutes the isolation buffer is replaced with fresh isolation buffer for an additional 10 min. The tissue is then washed 3 times in fresh collagenase and pronase free solution and stored at room temperature until studied. Cells for study are prepared by triturating 1–2 pieces of detrusor tissue in 2 ml of fresh isolation buffer for 5 minutes with a polished Pasteur pipette, (tip diameter ˜1.5 mm) attached to a modified Harvard Respirator pump (Harvard Apparatus, Southnatic, Mass.) at a rate of 20×/min. with an approximate volume of 5 ml. Cells are then placed on a microscope stage in a temperature regulated tissue bath at 32.5° C. and continually superfused with PSS.
Single cell recordings are performed with a List-Medical EPC-7 patch clamp amplifier (Adams & List Assoc., Westbury, N.Y.). Pipette electrodes had tip resistances of 2–4 MΩ and are filled with the following composition (mM): KCl (126.0), MgCl2.6H2O (4.5), ATP Mg salt (4.0), GTP tris salt (0.3), creatine PO4 (14.0), D-glucose (9.0), EGTA (9.0), HEPES (9.0). The pH is adjusted to 7.4 with KOH. Signals are acquired (3 kHz high frequency cut-off, 12 bit resolution) using a 586-based personal computer.
Whole cell recordings are made using broken patch access. Currents are evoked using either voltage steps (Vh=−50; Vt=−60 to 40 mV) or voltage ramps (−60 to 40 mV at 3.3 mV/sec.). The exact voltage clamp protocols are well known in the art. After stability is achieved control currents are recorded. Next, test compound is added to the superfusate. Currents are recorded for 5 to 10 minutes or until compound effects reach steady state. This is followed either by washout or addition of antagonists (linopirdine, XE-991) to the superfusate. […]

In the case of `CCOC(=O)Nc1ccc(NCc2ccc(F)cc2)cc1N` [retigabine, N-[2-amino-4-(4-fluorobenzylamino)-phenyl]carbamic acid ethyl ester], the “effect on outward current” value is reported as “increase in outward current”.
